Source: article PMC10011554, “BET inhibitor trotabresib in heavily pretreated patients with solid tumors and diffuse large B-cell lymphomas” (Nature Communications, 2023)
Like-named read-outs stand apart in the source and are kept apart here.

How the values were obtained:
[1] = test system: 14 PDX-derived GBM tumor models; parameters: method as in Investigator's Brochure; conditions: ref Investigator's Brochure, cited from earlier work
CYP2C8 = test system: CYP2C8; parameters: method as in Investigator's Brochure; conditions: CYP2C8, ref Investigator's Brochure; read-out: IC50, direct inhibition; cited from earlier work
[2] = test system: TNBR3 TNBC PDX-derived model; parameters: method as in Investigator's Brochure; conditions: TNBR3, ref Investigator's Brochure; read-out: IC50, colony formation; cited from earlier work
[3] = Prediction of human PK and exposure by allometric scaling; HED calculation
Source text: Protocol CC- 90010- ST-001 Celgene Corporation
Figure 3: CC- 90010- mediated Tumor Growth Inhibition of GBM3 (Glioblastoma Multiforme Patient-derived Xenograft) with and without Temozolomide […]
BID = twice daily; IP = investigational product (CC-90010); PO = by mouth; QD = once daily; SEM = standard […]
Source: Unpublished data from Celgene Corporation.
1.2.2. Nonclinical Pharmacokinetics and Drug Metabolism
In vitro and in vivo studies have been conducted to characterize the absorption, PK, distribution, metabolism and elimination of CC-90010. Robust and reproducible bioanalytical methods for the quantitation of CC-90010 levels were developed and used in PK and toxicokinetic studies.
Human PK parameters and exposures were predicted using allometric scaling.
Pharmacokinetics and oral bioavailability of CC-90010 were evaluated in Sprague-Dawley rats […]
clearance than females. […]
The metabolism of CC-90010 was evaluated in vitro using hepatocytes from various species (mouse, rat, rabbit, dog, monkey, and human). […]
Based on the doses and exposures at which the principal treatment-related effects occurred in the GLP-compliant, 4-week rat and dog studies, both species are considered of similar sensitivity to the toxicities associated with CC-90010 administration. […] This CC-90010 dose was calculated using the approach described in the ICH S9 Guideline entitled “Nonclinical Evaluation for […]

KARPAS-422 (GCB DLBCL) = test system: KARPAS-422 (GCB DLBCL); parameters: method as in Report CC-90010-Pharm-1018; conditions: KARPAS-422, Experiment 1, ref Report CC-90010-Pharm-1018; read-out: absolute IC50, proliferation; cited from earlier work
OATP1B3 = test system: OATP1B3; parameters: method as in Investigator's Brochure; conditions: OATP1B3, 30 µM, ref Investigator's Brochure; cited from earlier work
CYP3A4/5, CYP2C8 = test system: CYP3A4/5, CYP2C8; parameters: method as in Investigator's Brochure; conditions: ref Investigator's Brochure; cited from earlier work
SU-DHL-4 (GCB DLBCL) = test system: SU-DHL-4 (GCB DLBCL); parameters: method as in Report CC-90010-Pharm-1018; conditions: read-out: absolute IC50, proliferation, cited from earlier work
[4] = parameters: method as in Investigator's Brochure; conditions: ref Investigator's Brochure, cited from earlier work
U-2932 (ABC DLBCL) = test system: U-2932 (ABC DLBCL); parameters: method as in Report CC-90010-Pharm-1018; conditions: read-out: absolute IC50, proliferation, cited from earlier work

In the case of `Cn1cc(-c2cc(S(C)(=O)=O)ccc2OCC2CC2)c2ccccc2c1=O` [trotabresib], the IC50 ([1]; read-out: overall mean IC50, colony formation) is given as 620 ± 130 nM, the “activity range of IC50 values” [1] is given as 18 fold and the IC50 (CYP2C8) is given as ≥ 13900 nM. The IC50 [2] was 80 nM, the HED ([3]; from dog HNSTD) was 2.1 mg base/kg and the HED ([3]; from rat STD10) was 3.2 mg base/kg. The IC50 (KARPAS-422 (GCB DLBCL)) was 320 nM, the “inhibition of mediated transport” value (OATP1B3) was 58.3% and the enzymes mediating metabolism (CYP3A4/5, CYP2C8) was “mediated primarily by CYP3A4/5 with minor involvement of CYP2C8”. For the same molecule, the IC50 (SU-DHL-4 (GCB DLBCL); SU-DHL-4, Experiment 1, ref Report CC-90010-Pharm-1018) was 160 nM, the IC50 (SU-DHL-4 (GCB DLBCL); SU-DHL-4, Table 2, ref Report CC-90010-Pharm-1018) was 304 nM and the “accumulation after repeat dosing” value ([4]; rats, toxicokinetics) was “no accumulation in rats”. The “clearance in male vs female rats” value [4] was “approximately 2 fold”, the IC50 (U-2932 (ABC DLBCL); U-2932, Experiment 1, ref Report CC-90010-Pharm-1018) was 150 nM and the IC50 (U-2932 (ABC DLBCL); U-2932, Table 2, ref Report CC-90010-Pharm-1018) was 167 nM.
